Results: article PMC7343282, “Tissue Distribution of Several Series of Cationic Surfactants in Rainbow Trout (Oncorhynchus mykiss) Following Exposure via Water” (Environmental Science & Technology, 2020)

Test system: rainbow trout (Oncorhynchus mykiss)
Assay: Contribution of tissues to fish body burden
Format: in vivo
Conditions: for Contribution of Blood to the fish's body burden / Contribution of Gills to the fish's body burden / Contribution of Liver to the fish's body burden / Contribution of Mucus to the fish's body burden / Contribution of Other tissue (all apart from blood, liver, gills and skin; muscle concentration assumed) to body burden / Contribution of Skin to the fish's body burden: fraction; for % contribution to body burden, Gills / % contribution to body burden, Mucus / % contribution to body burden, Liver / % contribution to body burden, Skin / % contribution to body burden, Muscle: mean across fish, Figure 1; for % contribution to body burden, Liver / % contribution to body burden, Skin / % contribution to body burden, Muscle: Q10, Q14 maximum estimates; for % contribution to body burden, Muscle: includes all tissues not specifically analyzed
Text: To calculate the quantity of the test chemical in the different tissues, the amount of each tissue in the fish was estimated and multiplied by the concentration in that tissue. The test chemical quantities in the different tissues were then summed to give the body burden in each fish. The total weight of the fish and the weight of the liver and gills were available from the dissection (Table S16). For skin and mucus, the estimated outer surface area of the fish was used. We note that the distinction between mucus and skin is an operational one determined by the extraction method; mucus can be viewed as a more readily extracted fraction of the test chemical residues at the fish surface. The volume of blood was taken as 0.0495 mL g^–1 fish.[30] The remaining tissue (difference between the weight of the whole fish and the weight of liver, gills, skin, and blood) was assumed to have the concentration measured in the muscle. The contribution of the different tissues to the body burden is given for each fish in Table S17, and the average contribution across all fish is plotted in Figure 1. All of the tissues, with the exception of blood, contribute at least 10% of the body burden for at least half of the test chemicals. There is no consistent negative correlation between the fraction of chemical associated with blood, muscle, and liver (tissues where the residue originates entirely from systemic uptake) and alkyl chain length (a measure of hydrophobicity). Thus, although adsorption to fish surfaces appears to play a significant role, its contribution to body burden cannot be simply predicted from surfactant hydrophobicity. In the following, we examine uptake in individual tissues.

CCCCCCCCCN [P9, Nonylamine]
Contribution of Blood to the fish's body burden (Fish #1): 0.016 | Contribution of Gills to the fish's body burden (Fish #1): 0.36 | Contribution of Liver to the fish's body burden (Fish #1): 0.09 | Contribution of Mucus to the fish's body burden (Fish #1): 0.38 | Contribution of Other tissue (all apart from blood, liver, gills and skin; muscle concentration assumed) to body burden (Fish #1): 0.08 | Contribution of Skin to the fish's body burden (Fish #1): 0.07 | Contribution of Blood to the fish's body burden (Fish #2): 0.017 | Contribution of Gills to the fish's body burden (Fish #2): 0.26 | Contribution of Liver to the fish's body burden (Fish #2): 0.20 | Contribution of Mucus to the fish's body burden (Fish #2): 0.23 | Contribution of Other tissue (all apart from blood, liver, gills and skin; muscle concentration assumed) to body burden (Fish #2): 0.14 | Contribution of Skin to the fish's body burden (Fish #2): 0.15 | Contribution of Blood to the fish's body burden (Fish #3): 0.021 | Contribution of Liver to the fish's body burden (Fish #3): 0.17 | Contribution of Mucus to the fish's body burden (Fish #3): 0.20 | Contribution of Other tissue (all apart from blood, liver, gills and skin; muscle concentration assumed) to body burden (Fish #3): 0.14 | Contribution of Skin to the fish's body burden (Fish #3): 0.16 | Contribution of Blood to the fish's body burden (Fish #4): 0.010 | Contribution of Gills to the fish's body burden (Fish #4): 0.28 | Contribution of Liver to the fish's body burden (Fish #4): 0.19 | Contribution of Mucus to the fish's body burden (Fish #4): 0.28 | Contribution of Other tissue (all apart from blood, liver, gills and skin; muscle concentration assumed) to body burden (Fish #4): 0.12 | Contribution of Skin to the fish's body burden (Fish #4): 0.11 | Contribution of Blood to the fish's body burden (Fish #5): 0.012 | Contribution of Gills to the fish's body burden (Fish #5): 0.35 | Contribution of Liver to the fish's body burden (Fish #5): 0.08 | Contribution of Mucus to the fish's body burden (Fish #5): 0.36 | Contribution of Other tissue (all apart from blood, liver, gills and skin; muscle concentration assumed) to body burden (Fish #5): 0.12 | Contribution of Skin to the fish's body burden (Fish #5): 0.09 | Contribution of Blood to the fish's body burden (Fish #6): 0.018 | Contribution of Gills to the fish's body burden (Fish #6): 0.26 | Contribution of Liver to the fish's body burden (Fish #6): 0.08 | Contribution of Mucus to the fish's body burden (Fish #6): 0.35 | Contribution of Other tissue (all apart from blood, liver, gills and skin; muscle concentration assumed) to body burden (Fish #6): 0.10 | Contribution of Skin to the fish's body burden (Fish #6): 0.19 | Contribution of Blood to the fish's body burden (Mean): 0.016 | Contribution of Gills to the fish's body burden (Mean): 0.30 | Contribution of Liver to the fish's body burden (Mean): 0.14 | Contribution of Mucus to the fish's body burden (Mean): 0.30 | Contribution of Other tissue (all apart from blood, liver, gills and skin; muscle concentration assumed) to body burden (Mean): 0.12 | Contribution of Skin to the fish's body burden (Mean): 0.13 | % contribution to body burden, Gills: 30% | % contribution to body burden, Mucus: 30% | % contribution to body burden, Liver: 14% | % contribution to body burden, Skin: 13% | % contribution to body burden, Muscle: 12%

CCCCCCCCCCCCN [P12, Dodecylamine]
Contribution of Blood to the fish's body burden (Fish #1): 0.014 | Contribution of Gills to the fish's body burden (Fish #1): 0.34 | Contribution of Liver to the fish's body burden (Fish #1): 0.16 | Contribution of Mucus to the fish's body burden (Fish #1): 0.19 | Contribution of Other tissue (all apart from blood, liver, gills and skin; muscle concentration assumed) to body burden (Fish #1): 0.15 | Contribution of Skin to the fish's body burden (Fish #1): 0.14 | Contribution of Blood to the fish's body burden (Fish #2): 0.015 | Contribution of Gills to the fish's body burden (Fish #2): 0.24 | Contribution of Liver to the fish's body burden (Fish #2): 0.22 | Contribution of Mucus to the fish's body burden (Fish #2): 0.12 | Contribution of Other tissue (all apart from blood, liver, gills and skin; muscle concentration assumed) to body burden (Fish #2): 0.16 | Contribution of Skin to the fish's body burden (Fish #2): 0.25 | Contribution of Blood to the fish's body burden (Fish #3): 0.017 | Contribution of Liver to the fish's body burden (Fish #3): 0.20 | Contribution of Mucus to the fish's body burden (Fish #3): 0.11 | Contribution of Other tissue (all apart from blood, liver, gills and skin; muscle concentration assumed) to body burden (Fish #3): 0.16 | Contribution of Skin to the fish's body burden (Fish #3): 0.23 | Contribution of Blood to the fish's body burden (Fish #4): 0.011 | Contribution of Gills to the fish's body burden (Fish #4): 0.26 | Contribution of Liver to the fish's body burden (Fish #4): 0.24 | Contribution of Mucus to the fish's body burden (Fish #4): 0.14 | Contribution of Other tissue (all apart from blood, liver, gills and skin; muscle concentration assumed) to body burden (Fish #4): 0.16 | Contribution of Skin to the fish's body burden (Fish #4): 0.19 | Contribution of Blood to the fish's body burden (Fish #5): 0.010 | Contribution of Gills to the fish's body burden (Fish #5): 0.32 | Contribution of Liver to the fish's body burden (Fish #5): 0.12 | Contribution of Mucus to the fish's body burden (Fish #5): 0.17 | Contribution of Other tissue (all apart from blood, liver, gills and skin; muscle concentration assumed) to body burden (Fish #5): 0.20 | Contribution of Skin to the fish's body burden (Fish #5): 0.18 | Contribution of Blood to the fish's body burden (Fish #6): 0.018 | Contribution of Gills to the fish's body burden (Fish #6): 0.26 | Contribution of Liver to the fish's body burden (Fish #6): 0.16 | Contribution of Mucus to the fish's body burden (Fish #6): 0.18 | Contribution of Other tissue (all apart from blood, liver, gills and skin; muscle concentration assumed) to body burden (Fish #6): 0.12 | Contribution of Skin to the fish's body burden (Fish #6): 0.26 | Contribution of Blood to the fish's body burden (Mean): 0.014 | Contribution of Gills to the fish's body burden (Mean): 0.28 | Contribution of Liver to the fish's body burden (Mean): 0.19 | Contribution of Mucus to the fish's body burden (Mean): 0.15 | Contribution of Other tissue (all apart from blood, liver, gills and skin; muscle concentration assumed) to body burden (Mean): 0.16 | Contribution of Skin to the fish's body burden (Mean): 0.21 | % contribution to body burden, Gills: 28% | % contribution to body burden, Mucus: 15% | % contribution to body burden, Liver: 19% | % contribution to body burden, Skin: 21% | % contribution to body burden, Muscle: 16%

CCCCCCCCCCCCCN [P13, tridecylamine]
Contribution of Blood to the fish's body burden (Fish #1): 0.013 | Contribution of Gills to the fish's body burden (Fish #1): 0.27 | Contribution of Liver to the fish's body burden (Fish #1): 0.24 | Contribution of Mucus to the fish's body burden (Fish #1): 0.14 | Contribution of Other tissue (all apart from blood, liver, gills and skin; muscle concentration assumed) to body burden (Fish #1): 0.17 | Contribution of Skin to the fish's body burden (Fish #1): 0.17 | Contribution of Blood to the fish's body burden (Fish #2): 0.014 | Contribution of Gills to the fish's body burden (Fish #2): 0.27 | Contribution of Liver to the fish's body burden (Fish #2): 0.23 | Contribution of Mucus to the fish's body burden (Fish #2): 0.10 | Contribution of Other tissue (all apart from blood, liver, gills and skin; muscle concentration assumed) to body burden (Fish #2): 0.17 | Contribution of Skin to the fish's body burden (Fish #2): 0.21 | Contribution of Blood to the fish's body burden (Fish #3): 0.016 | Contribution of Liver to the fish's body burden (Fish #3): 0.16 | Contribution of Mucus to the fish's body burden (Fish #3): 0.09 | Contribution of Other tissue (all apart from blood, liver, gills and skin; muscle concentration assumed) to body burden (Fish #3): 0.24 | Contribution of Skin to the fish's body burden (Fish #3): 0.20 | Contribution of Blood to the fish's body burden (Fish #4): 0.013 | Contribution of Gills to the fish's body burden (Fish #4): 0.35 | Contribution of Liver to the fish's body burden (Fish #4): 0.15 | Contribution of Mucus to the fish's body burden (Fish #4): 0.11 | Contribution of Other tissue (all apart from blood, liver, gills and skin; muscle concentration assumed) to body burden (Fish #4): 0.17 | Contribution of Skin to the fish's body burden (Fish #4): 0.21 | Contribution of Blood to the fish's body burden (Fish #5): 0.013 | Contribution of Gills to the fish's body burden (Fish #5): 0.28 | Contribution of Liver to the fish's body burden (Fish #5): 0.23 | Contribution of Mucus to the fish's body burden (Fish #5): 0.09 | Contribution of Other tissue (all apart from blood, liver, gills and skin; muscle concentration assumed) to body burden (Fish #5): 0.17 | Contribution of Skin to the fish's body burden (Fish #5): 0.23 | Contribution of Blood to the fish's body burden (Fish #6): 0.013 | Contribution of Gills to the fish's body burden (Fish #6): 0.26 | Contribution of Liver to the fish's body burden (Fish #6): 0.27 | Contribution of Mucus to the fish's body burden (Fish #6): 0.09 | Contribution of Other tissue (all apart from blood, liver, gills and skin; muscle concentration assumed) to body burden (Fish #6): 0.17 | Contribution of Skin to the fish's body burden (Fish #6): 0.20 | Contribution of Blood to the fish's body burden (Mean): 0.014 | Contribution of Gills to the fish's body burden (Mean): 0.28 | Contribution of Liver to the fish's body burden (Mean): 0.21 | Contribution of Mucus to the fish's body burden (Mean): 0.10 | Contribution of Other tissue (all apart from blood, liver, gills and skin; muscle concentration assumed) to body burden (Mean): 0.18 | Contribution of Skin to the fish's body burden (Mean): 0.20 | % contribution to body burden, Gills: 28% | % contribution to body burden, Mucus: 10% | % contribution to body burden, Liver: 21% | % contribution to body burden, Skin: 20% | % contribution to body burden, Muscle: 18%
